The text below walks through data of PubChem BioAssay AID192 (DTP/NCI, 2004).

The test deals with BDF1 mice, B16 melanoma ip, median survival T/C. Kind of test: NCI In Vivo Anticancer Drug Screen. Data for tumor model B16 Melanoma (intraperitoneal) in B6D2F1 (BDF1) mice. Conditions: endpoint: median survival time, higher = longer survival. The procedure, abridged:
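Each result divides a survival or tumor-size measurement in the compound-treated group by the same measurement in the vehicle group.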

The mark [1] stands for this setting: dose: 6.25 mg/kg/injection, schedule: Q01DX009 (ip), vehicle: Klucel (hydroxypropylcellulose) (HPC).
[2] abbreviates: dose: 12.5 mg/kg/injection, schedule: Q01DX009 (ip), vehicle: Klucel (hydroxypropylcellulose) (HPC).
Where [3] appears, read: dose: 25.0 mg/kg/injection, schedule: Q01DX009 (ip), vehicle: Klucel (hydroxypropylcellulose) (HPC).
The mark [4] stands for this setting: dose: 12.5 mg/kg/injection, schedule: Q01DX009 (ip), vehicle: saline with Tween-80.
Setting [5] is: dose: 25.0 mg/kg/injection, schedule: Q01DX009 (ip), vehicle: saline with Tween-80.
[6] abbreviates: dose: 50.0 mg/kg/injection, schedule: Q01DX009 (ip), vehicle: saline with Tween-80.
Setting [7] is: dose: 100.0 mg/kg/injection, schedule: Q01DX009 (ip), vehicle: saline with Tween-80.
[8] abbreviates: dose: 200.0 mg/kg/injection, schedule: Q01DX009 (ip), vehicle: saline with Tween-80.
Where [9] appears, read: dose: 100.0 mg/kg/injection, schedule: Q01DX009 (ip), vehicle: Klucel (hydroxypropylcellulose) (HPC).
[10] abbreviates: dose: 200.0 mg/kg/injection, schedule: Q01DX009 (ip), vehicle: Klucel (hydroxypropylcellulose) (HPC).

Molecules are shown by their SMILES. Where “and” joins values, the source holds several entries; their conditions need not be identical. Equal values may be shown once. Inconclusive results and toxic doses are left out.

Take `C[C@]12CC[C@@H]3c4ccc(Oc5nc(N6CC6)nc(N6CC6)n5)cc4CC[C@H]3[C@@H]1CCC2=O`: the T/C by setting is: (dose: 3.13 mg/kg/injection, schedule: Q01DX009 (ip), vehicle: saline) 104 % of control; (dose: 6.25 mg/kg/injection, schedule: Q01DX009 (ip), vehicle: saline) 113 % of control; (dose: 6.25 mg/kg/injection, schedule: Q04DX003 (ip), vehicle: saline) 97 % of control; (dose: 12.5 mg/kg/injection, schedule: Q01DX009 (ip), vehicle: saline) 104 % of control; (dose: 12.5 mg/kg/injection, schedule: Q04DX003 (ip), vehicle: saline) 97 % of control; (dose: 25.0 mg/kg/injection, schedule: Q04DX003 (ip), vehicle: saline) 102 % of control. The T/C (dose: 50.0 mg/kg/injection, schedule: Q04DX003 (ip), vehicle: saline) was 97 % of control.

As to `N#CCc1c(Cl)ccc(Cl)c1Cl`, the T/C reads like this: under setting [1], 104 % of control; under setting [2], 99 % of control; under setting [3], 95 % of control; (dose: 50.0 mg/kg/injection, schedule: Q01DX009 (ip), vehicle: Klucel (hydroxypropylcellulose) (HPC)) 107 % of control.

Turning to `CC1=CC2=C(C=O)C(=O)[C@](C)(O)[C@@H](O)C2=CO1`, the T/C (dose: 6.25 mg/kg/injection, schedule: Q01DX009 (ip), vehicle: saline with Tween-80) is 119 % of control; the T/C under setting [4] is 108 % of control; the T/C under setting [5] is 122 % of control.

Consider `CCC1(CC)OC2=C(CC(C#N)(C#N)C(C#N)(C#N)C2)O1`, for which the T/C is 96 % of control (dose: 2.5 mg/kg/injection, schedule: Q04DX003 (ip), vehicle: Klucel (hydroxypropylcellulose) (HPC)); 100 % of control (dose: 3.12 mg/kg/injection, schedule: Q04DX003 (ip), vehicle: Klucel (hydroxypropylcellulose) (HPC)); 98 % of control (dose: 4.0 mg/kg/injection, schedule: Q04DX003 (ip), vehicle: Klucel (hydroxypropylcellulose) (HPC)); 96 % of control (dose: 9.5 mg/kg/injection, schedule: Q04DX003 (ip), vehicle: Klucel (hydroxypropylcellulose) (HPC)); 88 % of control (dose: 12.5 mg/kg/injection, schedule: Q04DX003 (ip), vehicle: Klucel (hydroxypropylcellulose) (HPC)).

Consider `BrCC(Br)CBr`, for which the T/C was 92 % of control under setting [5], 90 % of control under setting [6] and 90 % of control under setting [7].

For the molecule `C[N+](C)(C)Cc1ccccc1`, the T/C is 109 % of control under setting [1], 107 % of control under setting [2] and 101 % of control under setting [3].

On to `c1ccc(N/N=C2/CCN3CCCc4cccc2c43)cc1`, for which, for the setting “dose: 25.0 micrograms/kg/injection, schedule: Q01DX009 (ip), vehicle: DMSO”, the T/C is 86 % of control.

With `O=c1[nH]cc(B(O)O)c(=O)[nH]1`, the T/C (dose: 200.0 mg/kg/injection, schedule: Q01DX009 (ip), vehicle: saline) was 118 % of control.

For `COC1/C=C\C=C(/C)C(=O)Nc2cc3nc4cccc(Br)c4oc-3c(c2=O)CC(C)CC(OC)C(O)C(C)/C=C(\C)C1OC(N)=O` (stereo not given), the T/C was 103 % of control (dose: 12.5 mg/kg/injection, schedule: Q01DX005 (ip), vehicle: other); 98 % of control (dose: 25.0 mg/kg/injection, schedule: Q01DX005 (ip), vehicle: other); 108 % of control (dose: 50.0 mg/kg/injection, schedule: Q01DX005 (ip), vehicle: other); 107 % of control (dose: 100.0 mg/kg/injection, schedule: Q01DX005 (ip), vehicle: other); 94 % of control (dose: 200.0 mg/kg/injection, schedule: Q01DX005 (ip), vehicle: other).

Regarding `Cc1ccc(NC(=O)c2ccc(Cl)cc2)c(C)c1`, the T/C by setting is: (dose: 75.0 mg/kg/injection, schedule: Q01DX009 (ip), vehicle: Klucel (hydroxypropylcellulose) (HPC)) 93 % of control; (dose: 150.0 mg/kg/injection, schedule: Q01DX009 (ip), vehicle: Klucel (hydroxypropylcellulose) (HPC)) 91 % of control; (dose: 300.0 mg/kg/injection, schedule: Q01DX009 (ip), vehicle: Klucel (hydroxypropylcellulose) (HPC)) 88 % of control.

Turning to `CCCOP(=S)(N1CC1)N1CC1`, the T/C under setting [5] was 91 % of control, the T/C under setting [6] is 99 % of control, the T/C under setting [7] is 91 % of control and the T/C under setting [8] was 103 % of control.

Take `CNC1=C(N2CC2C)C(=O)C(NC)=C(N2CC2C)C1=O` (stereo not given): the T/C (dose: 1.25 mg/kg/injection, schedule: Q01DX009 (ip), vehicle: saline) was 109 % of control.

For the molecule `CCOC(C)C(/C=N/NC(N)=S)=NNC(N)=S` (stereo not given), the T/C under setting [6] was 90 % of control.

As to `CN(C(=O)c1cccnc1)c1ccccc1`, the T/C under setting [7] was 109 % of control; the T/C under setting [8] is 118 % of control; the T/C (dose: 400.0 mg/kg/injection, schedule: Q01DX009 (ip), vehicle: saline with Tween-80) is 111 % of control.

Take `CCCCCCCCCCCc1n(Cc2ccccc2)cc[n+]1C`: the T/C is 86 % of control (dose: 0.75 mg/kg/injection, schedule: Q01DX009 (ip), vehicle: saline); 90 % of control (dose: 1.5 mg/kg/injection, schedule: Q01DX009 (ip), vehicle: saline); 97 % of control (dose: 3.0 mg/kg/injection, schedule: Q01DX009 (ip), vehicle: saline).

In the case of `O=C(Nc1ccc(F)cc1)C(c1ccccc1)c1ccccc1`, the T/C by setting is: under setting [4], 98 % of control; under setting [5], 92 % of control; under setting [6], 89 % of control.

For the molecule `C[N+](C)(CCO)Cc1ccccc1`, the T/C is, setting by setting: under setting [6], 95 % of control; under setting [7], 90 % of control.

As to `CCC(=O)Oc1ccc(/C=N/NC(N)=S)nc1`, the T/C (dose: 50.0 mg/kg/injection, schedule: Q01DX009 (ip), vehicle: saline) is 153 % of control and the T/C (dose: 100.0 mg/kg/injection, schedule: Q01DX009 (ip), vehicle: saline) was 121 % of control.

As to `COc1cccc(/C=C/[N+](=O)[O-])c1`, the T/C is 98 % of control (dose: 5.0 mg/kg/injection, schedule: Q01DX009 (ip), vehicle: saline with Tween-80); 101 % of control (dose: 10.0 mg/kg/injection, schedule: Q01DX009 (ip), vehicle: saline with Tween-80); 94 % of control and 98 % of control (dose: 20.0 mg/kg/injection, schedule: Q01DX009 (ip), vehicle: saline with Tween-80).

For `CC(=O)CC(=O)Nc1ccc(C(=O)O)c(O)c1`, the T/C runs as follows: under setting [9], 86 % of control; under setting [10], 89 % of control.

Take `COc1cccc(CNc2cccc([N+](=O)[O-])c2)c1OC`: the T/C under setting [9] is 100 % of control; the T/C under setting [10] was 110 % of control; the T/C (dose: 400.0 mg/kg/injection, schedule: Q01DX009 (ip), vehicle: Klucel (hydroxypropylcellulose) (HPC)) is 105 % of control.

For `Cc1ccc(C(=O)CCl)c(C)c1`, the T/C by setting is: under setting [4], 90 % of control; under setting [5], 92 % of control; under setting [6], 95 % of control.
